This is an account of results in patent publication US20230301896A1, “COMPOSITION FOR PENETRATING SUGAR BASED DELIVERY SYSTEM” (Evonik Operations GmbH, priority 2015, published 2023).

The subject of one data set is Inner forearm. As to the kind of experiment: Reduction of irritation potential, 5 D Intravitaltomography (taum). In kind it is in vivo, human. The following applies: 0.3% of retinol occlusively applied onto inner forearm; taum at start point and 48 h after application. The text has this:
Reduction of Irritation can be detected by any known analytical test method which can be e.g. 5D IVT, ELISA, Patch Test. HET Cam Test using skin, skin models, cells. This effect depends on the active lipophilic ingredient encapsulated.
Data which measured in accordance with the method as described in “From Morphology To Biochemical State—Intravital Multiphoton Fluorescence Lifetime Imaging Of Inflamed Human Skin”, by Volker Huck et al. published in www.nature.com/scientificreports, 23 Mar. 2016; the disclosure of which is hereby incorporated by reference. Referring now to FIGS. 3 and 4, FIGS. 3 and 4 illustrate the Taum measurement. The delivery system of the invention can achieve Tau values of about 100 ps to about 3000 ps, about 300 ps to about 2500 ps and in some cases about 500 ps to about 1500 ps in the Stratum granulosum and Stratum spinosum.

Data set [1] can be described thus: HPLC determination of retinol (stabilization of active ingredient). In kind it is physicochemical. The following applies: UV 323 nm. On the procedure:
Active ingredients can be detected by any known analytical test method which can be e.g. HPLC, GG, ESR depending on the composition. This effect depends on the active lipophilic ingredient encapsulated.
Test Method used: HPLC Chromatography
Instrumentation: Liquid Chromatograph Agilent 1100 with autosampler, UV-detector
Column: Reprosil C-18-AQ; 5μ, 200*4 mm (Fa. Dr. Maisch) with precolumn: • Column Temp.: 20° C. • Mobile Phase: Acetonitrile/THF/Water (54/38/8 v/v/v) • Flow Rate: 1.0 ml/min • Gradient Program: Isocratic • Detection: UV-Detector; 323 nm • Injection Volume: 5 μl; Autosampler • Retention Time: 1.6 min
Reagents: • Acetonitrile (Roth, gradient grade) • THF (Roth, gradient grade) • 2-Propanol (Roth, gradient grade) • Water, twice-distilled • Retinol 50C (BASF, Cosmetic Quality, approx, 50%)—standard • (If not stated otherwise the reagents are used as purchased without any further purification)

In the case of `CC1=C(/C=C/C(C)=C/C=C/C(C)=C/CO)C(C)(C)CCC1` [retinol, Retinol], in the data set on Inner forearm, the irritation potential result is on record as “significantly higher”. In data set [1], the “stabilization of Retinol (HPLC)” value is on record as “degrades”.
